In paper PMC4789591, “Involvement of Daphnia pulicaria Sir2 in regulating stress response and lifespan” (Aging (Albany NY), 2016):

Molecular target: T1, Daphnia Sir2 (Daphnia pulicaria, UniProt A0A0U3BSS1)
T1 construct: full-length ORF, N-terminal FLAG tag, pcDNA3.1-, in vitro translated in rabbit reticulocyte lysate (TNT T7), not purified; calculated mass 67 kD
T1 sequence (A0A0U3BSS1 1-601): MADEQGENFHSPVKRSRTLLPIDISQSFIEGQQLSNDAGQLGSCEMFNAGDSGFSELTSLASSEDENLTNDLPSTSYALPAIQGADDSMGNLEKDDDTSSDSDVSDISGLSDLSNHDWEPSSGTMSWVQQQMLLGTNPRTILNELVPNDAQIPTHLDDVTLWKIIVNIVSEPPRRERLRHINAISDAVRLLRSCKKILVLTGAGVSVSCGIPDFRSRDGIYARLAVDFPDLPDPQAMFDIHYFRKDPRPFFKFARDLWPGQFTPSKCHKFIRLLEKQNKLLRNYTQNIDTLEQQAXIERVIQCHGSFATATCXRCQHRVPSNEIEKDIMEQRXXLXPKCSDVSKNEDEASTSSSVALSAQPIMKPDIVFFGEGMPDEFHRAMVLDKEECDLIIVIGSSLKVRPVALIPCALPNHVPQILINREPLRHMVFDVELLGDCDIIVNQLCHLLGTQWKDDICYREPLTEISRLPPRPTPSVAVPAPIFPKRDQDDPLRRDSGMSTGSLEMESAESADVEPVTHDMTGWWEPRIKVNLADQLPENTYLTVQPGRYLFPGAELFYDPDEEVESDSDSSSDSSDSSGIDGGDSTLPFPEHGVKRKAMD
Assay: fluorogenic acetylated-peptide deacetylase assay (Abcam ab156065)
Assay type: biochemical
Conditions: in vitro translated protein in reticulocyte lysate, lysate background subtracted; inhibitor concentration not told for this test; peptidase-coupled

SMILES: NC(=O)C1CCCc2c1[nH]c1ccc(Cl)cc21 (stereo not shown) [Ex527]
- inhibition of deacetylase activity: human recombinant Sirt1 as well as Daphnia Sir2 activity is significantly diminished by the inhibitor
